# Experimental data taken from patent US12433830B2, “Anti-aging compositions and methods of use thereof” (S.I.S. SHULOV INNOVATIVE SCIENCE LTD., priority 2019, dated 2025).
# Where a SMILES comes first, the peptide text is derived from it. [ ]: non-standard residue; d: D form. The star is where a group is joined. pGlu = O=C1CC[C@@H](C(=O)O)N1; Octanoyl = CCCCCCCC(=O)*
# What was measured:
# [1] = system: Mattek's EpiDerm™ X (EPI-606-X) reconstructed human epidermis tissue; assay: Skin metabolism, full scan HRMS search for metabolites in permeation samples; format: in vitro ADME; details: t=4, 8, 20, 22, 24 h vs time zero; positive and negative ESI
# Method: The skin metabolism of ZEP3 and ZEP3Na was also investigated. Full scan HRMS chromatograms were acquired for the samples, in both positive and negative ESI mode, in order to identify possible metabolites of the target analytes. Differential analysis between the samples through the experiment (t=4, 8, 20, 22, and 24 h) and the sample at time zero was performed. Evaluation of the fragmentation profile through MS/MS experiments was also performed in order to provide additional information.
# epidermal cells [2] = assay: Formation of reactive oxygen species (ROS) in epidermal cells under stress conditions; format: cell-based; details: stress conditions (70 mM NaCl)
# epidermal cells [3] = assay: Viability of epidermal cells under stress conditions; format: cell-based; details: stress conditions (70 mM NaCl)
# [4] = rat, chemical corneal injury; cited from earlier work
Compound,metabolites identified [1],formation of reactive oxygen species (ROS) (epidermal cells [2]),viability of epidermal cells (epidermal cells [3]),effect on ocular pain [4]
"CCCCCCCC(=O)NCCCC[C@H](NC(=O)[C@H](Cc1c[nH]c2ccccc12)NC(=O)[C@H](CC(N)=O)NC(=O)[C@@H]1CCC(=O)N1)C(=O)O [ZEP3, pGlu-Asn-Trp-Lys(Octanoyl)-OH] ([pGlu]NWK(Octanoyl)-OH)",No metabolites,reduced the formation of reactive oxygen species (ROS),increased viability of epidermal cells,
pGlu-Asn-Trp-Thr-OH ([pGlu]NWT-OH; SMILES C[C@@H](O)[C@H](NC(=O)[C@H](Cc1c[nH]c2ccccc12)NC(=O)[C@H](CC(N)=O)NC(=O)[C@@H]1CCC(=O)N1)C(=O)O) [ZEP4],,reduced the formation of reactive oxygen species (ROS),increased viability of epidermal cells,analgesic effect
